Laboratory results as given in patent US11524943B1 (Vivace Therapeutics, Inc., priority 2017, dated 2022).

System: HEK293T cells stably transfected with 8×TBD luciferase reporter and pRLTK
Assay: YAP Reporter Assay (8×TBD firefly luciferase reporter)
Assay type: cell-based
Conditions: Homo sapiens, HEK-293T; HEK293T 8×TBD reporter cells, 24-hr incubation, top concentration 3 μM, 1:3 dilution, 10 points
Procedure: HEK293T cells stably transfected with 8×TBD luciferase reporter and pRLTK in 384-well plates were treated with the test compounds, starting from 3 μM (final concentration in assay plate), 1:3 dilution, and 10 points in quadruplicates. Post 24-hr incubation with compounds at 37° C. and 5% CO2, cells were lysed and 8×TBD-driven firefly luciferase and control TK-driven renilla luciferase activities were measured using Promega Dual-Luciferase Reporter Assay System.
Reagents: The reagents used for this study are: DMEM: Invitrogen #11960077, Dual-Glo Luciferase Assay System: Promega-E2980, Puromycin Dihydrochloride: Invitrogen-A1113803, 384-well plate: PerkinElmer-6007480, L-GLUTAMINE: Invitrogen-25030164, Hygromycin B: Invitrogen-10687010, and Penicillin-Streptomycin: Merk-TMS-AB2-C
Media: The media used for this assay were: Culture Medium: DMEM+1 ug/mL puromycin+200 ug/mL hygromycin (with 10% FBS+1 mM L-glutamine); and Assay Medium: DMEM (with 10% FBS+1 mM L-glutamine+1×P/S).
Cell Plating: The appropriate media was warmed at 37° C. by water bath: Culture Medium, Assay Medium, 1*D-PBS, 0.05% trypsin-EDTA. The cells were trypsinized after removing all media, then washed with 1* sterile D-PBS and then with 2 ml 0.05% trypsin-EDTA. The cells were then incubated at RT for one minute. Then 10 ml/75 cm2 flask Assay Medium was added to each flask. Using a 10 ml pipette, the cells were then gently resuspended in the media, until the clumps completely disappeared. The cells were then transferred into 50 ml centrifuge tubes and were centrifuged at 800 rpm for 5 mins. The medium was removed and the cells were resuspended with Assay Medium. An aliquot of cells was used to count the cell density (cells/ml). The cell suspension was then diluted with Assay Medium to a concentration of 6×10^4 cells/ml. 50 ul cells suspension was then plated to 384-well plate (PerkinElmer-6007480), 3×10^3 cells/well and the cells were incubated in an incubator at 37° C., 5% CO2.
Compound Treatment: In the afternoon (incubation of the plate with 3-4 hrs), the test compounds were added by Echo, starting from 3 uM (final concentration in the assay plate), 1:3 dilution, 10 points, quadruplicates. The plate was placed at 37° C., 5% CO2 incubator for 24 hrs.
Detection: The Dual-Glo Luciferase Reagent was prepared by transferring the contents of one bottle of Dual-Glo Luciferase Buffer to one bottle of Dual-Glo Luciferase Substrate to create the Dual-Glo Luciferase Reagent. Mixing was performed by inversion until the substrate was thoroughly dissolved. After mixing, the reagent was aliquoted into 15 ml tubes. In the afternoon (24 hrs post compound treatment), the DMEM+ medium in the 384 well plates were aspirated by Microplate Washer.
Measuring firefly luciferase activity: 20 ul Dual-Glo Luciferase Reagent was added to the 384-well plates. The plates were protected from light to prevent interference with the assay. The plates were shaken for 1 min followed centrifuging plates at 1000 rpm for 30 seconds. After waiting at least 10 minutes, the firefly luminescence was measured by Envision.
Measuring renilla luciferase activity: 20 ul Stop-Glo Reagent was added to the 384-well plates. The plates were shaken for 1 min and then centrifuged at 1000 rpm for 30 seconds. After waiting at least 10 minutes, the renilla luminescence was measured by Envision.
Compound IC50 and maximum inhibition on the firefly luciferase and renilla luciferase activities were reported separately.

| SMILES | IC50 |
| --- | --- |
| COC(=O)c1ccc(Nc2ccc(C(F)(F)F)cc2)c(-c2nnn(C)n2)c1 [Compound 1, methyl 3-(2-methyl-2H-tetrazol-5-yl)-4-((4-(trifluoromethyl)phenyl)amino)benzoate] | ≤ 100 nM |
| COC(=O)c1ccc(Nc2cccc(C(F)(F)F)c2)c(-c2nnn(C)n2)c1 [Compound 2, methyl 3-(2-methyl-2H-telrazol-5-yl)-4-((3-(trifluoromethyl)phenyl)amino)benzoate] | ≤ 100 nM |
| Cn1nnc(-c2cc(C(=O)O)ccc2Nc2ccc(C(F)(F)F)cc2)n1 [Compound 3, 3-(2-methyl-2H-tetrazol-5-yl)-4-((4-(trifluoromethyl)phenyl)amino) benzoic acid] | ≤ 100 nM |
| Cn1nnc(-c2cc(C(=O)O)ccc2Nc2cccc(C(F)(F)F)c2)n1 [Compound 4, 3-(2-methyl-2H-tetrazol-5-yl)-4-((3-(trifluoromethyl)phenyl)amino) benzoic acid] | ≤ 100 nM |
| CNC(=O)c1ccc(Nc2cccc(C(F)(F)F)c2)c(-c2nnn(C)n2)c1 [Compound 5, N-methyl-3-(2-methyl-2H-tetrazol-5-yl)-4-((3-(trifluoromethyl)phenyl)amino) benzamide] | ≤ 100 nM |
| Cn1nnc(-c2cc(C(N)=O)ccc2Nc2cccc(C(F)(F)F)c2)n1 [Compound 6, 3-(2-methyl-2H-tetrazol-5-yl)-4-((3-(trifluoromethyl)phenyl)amino) benzamide] | ≤ 100 nM |
| Cn1nnc(-c2cc(C(N)=O)ccc2Nc2ccc(C(F)(F)F)cc2)n1 [Compound 7, 3-(2-methyl-2H-tetrazol-5-yl)-4-((4-(trifluoromethyl)phenyl)amino) benzamide] | ≤ 100 nM |
| CNC(=O)c1ccc(Nc2ccc(C(F)(F)F)cc2)c(-c2nnn(C)n2)c1 [Compound 8, N-methyl-3-(2-methyl-2H-tetrazol-5-yl)-4-((4-(trifluoromethyl)phenyl)amino) benzamide] | ≤ 100 nM |
| CCNC(=O)c1ccc(Nc2ccc(C(F)(F)F)cc2)c(-c2nnn(C)n2)c1 [Compound 10, N-ethyl-3-(2-methyl-2H-tetrazol-5-yl)-4-((4-(trifluoromethyl)phenyl)amino) benzamide] | ≤ 100 nM |
| CC(C)NC(=O)c1ccc(Nc2ccc(C(F)(F)F)cc2)c(-c2nnn(C)n2)c1 [Compound 11, N-isopropyl-3-(2-methyl-2H-tetrazol-5-yl)-4-((4-(trifluoromethyl)phenyl)amino) benzamide] | ≤ 100 nM |
| COC(=O)c1ccc(Nc2ccc(C(=O)NC(C)C)cc2)c(-c2nnn(C)n2)c1 [Compound 12, methyl 4-((4-(isopropylcarbamoyl)phenyl)amino)-3-(2-methyl-2H-tetrazol-5-yl)benzoate] | 1000 to 3000 nM |
| CN(C)C(=O)c1ccc(Nc2ccc(C(F)(F)F)cc2)c(-c2nnn(C)n2)c1 [Compound 13, N,N-dimethyl-3-(2-methyl-2H-tetrazol-5-yl)-4-((4-(trifluoromethyl)phenyl)amino) benzamide] | 100 to 1000 nM |
| Cn1nnc(-c2cc(C(=O)NS(C)(=O)=O)ccc2Nc2ccc(C(F)(F)F)cc2)n1 [Compound 15, 3-(2-methyl-2H-tetrazol-5-yl)-N-(methylsulfonyl)-4-((4-(trifluoromethyl)phenyl)amino) benzamide] | ≤ 100 nM |
| CCN(CC)C(=O)c1ccc(Nc2ccc(C(F)(F)F)cc2)c(-c2nnn(C)n2)c1 [Compound 17, N,N-diethyl-3-(2-methyl-2H-tetrazol-5-yl)-4-((4-(trifluoromethyl)phenyl)amino) benzamide] | 100 to 1000 nM |
| CN(C)C(=O)c1ccc(Nc2cccc(C(F)(F)F)c2)c(-c2nnn(C)n2)c1 [Compound 19, N,N-dimethyl-3-(2-methyl-2H-tetrazol-5-yl)-4-((3-(trifluoromethyl)phenyl)amino) benzamide] | 100 to 1000 nM |
| CCN(CC)C(=O)c1ccc(Nc2cccc(C(F)(F)F)c2)c(-c2nnn(C)n2)c1 [Compound 20, N,N-diethyl-3-(2-methyl-2H-tetrazol-5-yl)-4-((3-(trifluoromethyl)phenyl)amino) benzamide] | 100 to 1000 nM |
